In US7273846B2, “Selective melanin-concentrating hormone type-1 receptor agonists” (priority 2002, dated 2007):
Read-outs that look alike come from different tables or passages of the source. Residues, ends and D or L forms follow the SMILES beside them.

Legend:
MCH-1R [1] = target: T1, MCH-1R (Homo sapiens, UniProt Q99705); assay: Aequorin bioluminescence functional assay, 293AEQ17/MCH-1R cells; assay type: cell-based; design: expressed in transfected cells; details: for MCH-1R Activation %: human MCH = 100, activation at 10 μM concentration
Procedure: (§1) The aequorin bioluminescence assay is a reliable test for identifying G-protein-coupled receptors that couple through the G protein subunit family consisting of Gq and G11. Gq and G11 coupling leads to the activation of phospholipase C, mobilization of intracellular calcium, and activation of protein kinase C.
Stable cell lines expressing either the MCH-1R or the MCH-2R and the aequorin reporter protein were used. The assay was performed using a Luminoskan RT luminometer (Labsystems Inc., Gaithersburg, Md.) controlled by custom software written for a Macintosh PowerPC 6100.
(§2) The cells were harvested, washed once in ECB medium, and resuspended to 500,000 cells/mL. 100 μL of cell suspension (corresponding to 5×10^4 cells) was then injected into the test plate containing the hMCH peptides, and the integrated light emission was recorded over 30 seconds, in 0.5-s units. 20 μL of lysis buffer (0.1% final Triton X-100 concentration) was then injected and the integrated light emission recorded over 10 seconds, in 0.5-s units. The “fractional response” values for each well were calculated by taking the ratio of the integrated response to the initial challenge to the total integrated luminescence including the Triton X-100 lysis response.

MCH-2R = MCH-2R (Homo sapiens, UniProt Q969V1); assay: Aequorin bioluminescence functional assay, 293AEQ17/MCH-2R cells; assay type: cell-based; design: expressed in transfected cells; MCH-2R Activation %: concentration or dose not given beside the values; details: for MCH-2R Activation %: human MCH = 100; for EC50: aequorin, 293AEQ17/MCH-2R cells
Source text: as §1
Stable cell lines expressing either the MCH-1R or the MCH-2R and the aequorin reporter protein were used.
as §2

MCH-1R [2] = target: T1, MCH-1R
[3] = aequorin, 293AEQ17/MCH-1R cells, read-out: MCH-1R EC50

Chain of MCH-2R (Q969V1 whole entry): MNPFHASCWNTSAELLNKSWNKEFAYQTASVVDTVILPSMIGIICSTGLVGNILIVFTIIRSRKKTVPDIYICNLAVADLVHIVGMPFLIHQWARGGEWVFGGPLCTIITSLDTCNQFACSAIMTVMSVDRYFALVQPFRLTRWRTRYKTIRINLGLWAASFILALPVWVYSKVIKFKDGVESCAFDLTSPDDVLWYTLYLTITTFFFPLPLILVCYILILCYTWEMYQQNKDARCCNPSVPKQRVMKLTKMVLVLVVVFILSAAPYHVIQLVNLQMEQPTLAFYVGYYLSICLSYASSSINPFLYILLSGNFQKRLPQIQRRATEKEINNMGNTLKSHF
T1 sequence (Q99705 whole entry): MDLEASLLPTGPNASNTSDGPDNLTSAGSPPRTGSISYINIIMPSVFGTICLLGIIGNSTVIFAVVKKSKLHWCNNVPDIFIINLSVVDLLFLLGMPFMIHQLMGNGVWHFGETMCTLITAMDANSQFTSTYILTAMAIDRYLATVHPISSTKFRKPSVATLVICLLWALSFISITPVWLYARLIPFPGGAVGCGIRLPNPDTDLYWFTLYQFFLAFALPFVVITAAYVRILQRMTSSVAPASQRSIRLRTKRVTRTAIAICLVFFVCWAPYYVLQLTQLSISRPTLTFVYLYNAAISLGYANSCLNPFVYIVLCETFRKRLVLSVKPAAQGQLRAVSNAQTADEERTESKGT

| MCH-2R Activation % (MCH-2R) [%] | Selectivity 2/1 (MCH-2R/MCH-1R EC50 activity ratio) (MCH-1R [1]) | EC50 (MCH-1R [1]; [3]) [nM] | MCH-1R Activation % (MCH-1R [1]) [%] | Selectivity 2/1 (MCH-2R/MCH-1R IC50 binding ratio) (MCH-1R [2]) | EC50 (MCH-2R) [nM] | fold lower binding affinity for hMCH-1R (MCH-1R [2]; relative to the D-Arg^6 compound) | fold more selective as agonist for hMCH-1R than hMCH-2R (MCH-1R [1]) | fold lower agonist activity at hMCH-1R (MCH-1R [1]; relative to Ac-hMCH(6-16)-NH2) [fold] | Structure (SMILES) | agonism at hMCH-1R in words (MCH-1R [1]) | agonism at hMCH-2R in words (MCH-2R) | EC50 (MCH-1R [1]) [nM] |
| --- | --- | --- | --- | --- | --- | --- | --- | --- | --- | --- | --- | --- |
| – | – | – | – | – | – | – | – | – | CCCC[C@@H]1NC(=O)[C@@H](NC(=O)[C@H](N)CCCNC(=N)N)CSSC[C@@H](C(N)=O)NC(=O)[C@@H]2CCCN2C(=O)[C@H](CCCNC(=N)N)NC(=O)[C@H](Cc2ccc(O)cc2)NC(=O)[C@H](C(C)C)NC(=O)[C@H](CCCNC(=N)N)NC(=O)[C@H](CC(N)=O)NC(=O)[C@H](CC(C)C)NC1=O [SEQ. ID. NO. 32] (HELM PEPTIDE1{[dR].C.[Nle].L.N.R.V.Y.R.P.C.[am]}$PEPTIDE1,PEPTIDE1,2:R3-11:R3$$$V2.0) | potent and selective hMCH-1R agonists | – | – |
| 51 | 30 | 160 | 109 | 3500 | – | – | – | – | CSCC[C@@H]1NC(=O)[C@@H](NC(=O)[C@@H](C)NC(C)=O)CSSC[C@@H](C(N)=O)NC(=O)[C@@H]2CCCN2C(=O)[C@H](CCCNC(=N)N)NC(=O)[C@H](Cc2ccc(O)cc2)NC(=O)[C@H](C(C)C)NC(=O)[C@H](CCCNC(=N)N)NC(=O)CNC(=O)[C@H](CC(C)C)NC1=O [SEQ. ID. NO. 6] | – | – | – |
| 102 | 0.29 | 51 | 121 | 16 | – | – | – | – | CSCC[C@@H]1NC(=O)[C@@H](NC(=O)[C@H](CCCNC(=N)N)NC(C)=O)CSSC[C@@H](C(N)=O)NC(=O)[C@@H]2CCCN2C(=O)[C@H](CCCNC(=N)N)NC(=O)[C@H](Cc2ccc(O)cc2)NC(=O)[C@H](C(C)C)NC(=O)[C@H](CCCNC(=N)N)NC(=O)[C@H](C)NC(=O)[C@H](CC(C)C)NC1=O [SEQ. ID. NO. 16] (HELM PEPTIDE1{[ac].R.C.M.L.A.R.V.Y.R.P.C.[am]}$PEPTIDE1,PEPTIDE1,3:R3-12:R3$$$V2.0) | – | – | – |
| 68 | 0.3 | 920 | 91 | 43 | 310 | about 30 fold | – | – | CSCC[C@@H]1NC(=O)[C@@H](NC(=O)[C@@H](CCCNC(N)=O)NC(C)=O)CSSC[C@@H](C(N)=O)NC(=O)[C@@H]2CCCN2C(=O)[C@H](CCCNC(=N)N)NC(=O)[C@H](Cc2ccc(O)cc2)NC(=O)[C@H](C(C)C)NC(=O)[C@H](CCCNC(=N)N)NC(=O)CNC(=O)[C@H](CC(C)C)NC1=O [SEQ. ID. NO. 14] | lower than those of the L-Arg^6 compound | lower than those of the L-Arg^6 compound | – |
| 38 | – | > 10000 | 7 | 0.7 | – | – | – | – | CSCC[C@@H]1NC(=O)[C@@H](NC(=O)[C@H](CCCNC(=N)N)NC(C)=O)CSSC[C@@H](C(N)=O)NC(=O)[C@@H]2CCCN2C(=O)[C@H](CCCNC(=N)N)NC(=O)[C@H](Cc2ccc(O)cc2)NC(=O)[C@H](C(C)C)NC(=O)[C@H](CCCNC(=N)N)NC(=O)[C@H](CCCNC(=N)N)NC(=O)[C@H](CC(C)C)NC1=O [SEQ. ID. NO. 23] (HELM PEPTIDE1{[ac].R.C.M.L.R.R.V.Y.R.P.C.[am]}$PEPTIDE1,PEPTIDE1,3:R3-12:R3$$$V2.0) | – | – | – |
| 105 | – | > 10000 | 7 | 14 | – | – | – | – | CSCC[C@@H]1NC(=O)[C@@H](NC(=O)[C@H](CCCNC(=N)N)NC(C)=O)CSSC[C@@H](C(N)=O)NC(=O)[C@@H]2CCCN2C(=O)[C@H](CCCNC(=N)N)NC(=O)[C@H](Cc2ccc(O)cc2)NC(=O)[C@H](C(C)C)NC(=O)[C@H](CCCNC(=N)N)NC(=O)[C@H](Cc2ccc3ccccc3c2)NC(=O)[C@H](CC(C)C)NC1=O [SEQ. ID. NO. 21] | – | – | – |
| 68 | 0.3 | 920 | 91 | 42 | – | – | – | – | CSCC[C@@H]1NC(=O)[C@@H](NC(=O)[C@H](CCCNC(=N)N)NC(C)=O)CSSC[C@@H](C(N)=O)NC(=O)[C@@H]2CCCN2C(=O)[C@H](CCCNC(=N)N)NC(=O)[C@H](Cc2ccc(O)cc2)NC(=O)[C@H](C(C)C)NC(=O)[C@H](CCCNC(=N)N)NC(=O)[C@H](CCCNC(N)=O)NC(=O)[C@H](CC(C)C)NC1=O [SEQ. ID. NO. 27] | – | – | – |
| 11 | – | – | 74 | 230 | > 10000 | – | about 150 fold | – | CSCC[C@@H]1NC(=O)[C@@H](NC(=O)[C@@H](CCCNC(=N)N)NC(C)=O)CSSC[C@@H](C(N)=O)NC(=O)[C@@H]2CCCN2C(=O)[C@H](CCCNC(=N)N)NC(=O)[C@H](Cc2ccc(O)cc2)NC(=O)[C@H](C(C)C)NC(=O)[C@H](CCCNC(=N)N)NC(=O)[C@H](CCC(N)=O)NC(=O)[C@H](CC(C)C)NC1=O [SEQ. ID. NO. 30] (HELM PEPTIDE1{[ac].[dR].C.M.L.Q.R.V.Y.R.P.C.[am]}$PEPTIDE1,PEPTIDE1,3:R3-12:R3$$$V2.0) | activated hMCH-1R almost as efficiently as Ac-hMCH(6-16)NH2 | – | – |
| – | – | – | 99 | – | – | – | – | – | CSCC[C@@H]1NC(=O)[C@@H](NC(=O)[C@H](CCCNC(=N)N)NC(C)=O)CSSC[C@@H](C(N)=O)NC(=O)[C@@H]2CCCN2C(=O)[C@H](CCCNC(=N)N)NC(=O)[C@H](Cc2ccc(O)cc2)NC(=O)[C@H](C(C)C)NC(=O)[C@H](CCCNC(=N)N)NC(=O)CNC(=O)[C@H](CC(C)C)NC1=O [SEQ. ID. NO. 2, Ac-hMCH(6-16)-NH2, reference compound] | – | – | – |
| 79 | 7 | 66 | 117 | 1380 | – | – | – | – | CSCC[C@@H]1NC(=O)[C@@H](NC(=O)[C@@H](Cc2ccccc2)NC(C)=O)CSSC[C@@H](C(N)=O)NC(=O)[C@@H]2CCCN2C(=O)[C@H](CCCNC(=N)N)NC(=O)[C@H](Cc2ccc(O)cc2)NC(=O)[C@H](C(C)C)NC(=O)[C@H](CCCNC(=N)N)NC(=O)CNC(=O)[C@H](CC(C)C)NC1=O [SEQ. ID. NO. 9] | – | – | – |
| 17 | – | 260 | 109 | – | > 10000 | – | about 50 fold | 5 | CSCC[C@@H]1NC(=O)[C@@H](NC(=O)[C@@H](CCCNC(=N)N)NC(C)=O)CSSC[C@@H](C(N)=O)NC(=O)[C@@H]2CCCN2C(=O)[C@H](C)NC(=O)[C@H](Cc2ccc(O)cc2)NC(=O)[C@H](C(C)C)NC(=O)[C@H](CCCNC(=N)N)NC(=O)[C@H](CC(N)=O)NC(=O)[C@H](CC(C)C)NC1=O [SEQ. ID. NO. 33] (HELM PEPTIDE1{[ac].[dR].C.M.L.N.R.V.Y.A.P.C.[am]}$PEPTIDE1,PEPTIDE1,3:R3-12:R3$$$V2.0) | – | – | – |
| 74 | 1.8 | – | 123 | 1900 | – | – | – | – | CSCC[C@@H]1NC(=O)[C@@H](NC(=O)[C@H](CCCNC(=N)N)NC(C)=O)CSSC[C@@H](C(N)=O)NC(=O)[C@@H]2CCCN2C(=O)[C@H](CCCNC(=N)N)NC(=O)[C@H](Cc2ccc(O)cc2)NC(=O)[C@H](C(C)C)NC(=O)[C@H](CCCNC(=N)N)NC(=O)[C@H](CC(C)C)NC(=O)[C@H](CC(C)C)NC1=O [SEQ. ID. NO. 17] | – | – | – |

| Structure (SMILES) | MCH-2R Activation % (MCH-2R) [%] | Selectivity 2/1 (MCH-2R/MCH-1R EC50 activity ratio) (MCH-1R [1]) | EC50 (MCH-1R [1]; [3]) [nM] | MCH-1R Activation % (MCH-1R [1]) [%] | Selectivity 2/1 (MCH-2R/MCH-1R IC50 binding ratio) (MCH-1R [2]) | EC50 (MCH-2R) [nM] | fold lower binding affinity for hMCH-1R (MCH-1R [2]; relative to the D-Arg^6 compound) | fold more selective as agonist for hMCH-1R than hMCH-2R (MCH-1R [1]) | fold lower agonist activity at hMCH-1R (MCH-1R [1]; relative to Ac-hMCH(6-16)-NH2) [fold] | agonism at hMCH-1R in words (MCH-1R [1]) | agonism at hMCH-2R in words (MCH-2R) | EC50 (MCH-1R [1]) [nM] |
| --- | --- | --- | --- | --- | --- | --- | --- | --- | --- | --- | --- | --- |
| CSCC[C@@H]1NC(=O)[C@@H](NC(=O)[C@H](CCCNC(=N)N)NC(=O)[C@H](CC(C)C)NC(=O)[C@H](CCSC)NC(=O)[C@H](CC(=O)O)NC(=O)[C@H](Cc2ccccc2)NC(=O)[C@@H](N)CC(=O)O)CSSC[C@@H](C(=O)N[C@@H](Cc2c[nH]c3ccccc23)C(=O)N[C@@H](CCC(N)=O)C(=O)N[C@H](C(=O)O)C(C)C)NC(=O)[C@@H]2CCCN2C(=O)[C@H](CCCNC(=N)N)NC(=O)[C@H](Cc2ccc(O)cc2)NC(=O)[C@H](C(C)C)NC(=O)[C@H](CCCNC(=N)N)NC(=O)CNC(=O)[C@H](CC(C)C)NC1=O [SEQ. ID. NO. 1, human MCH, reference compound] | 100 | – | – | 100 | – | – | – | – | – | – | – | – |
| CSCC[C@@H]1NC(=O)[C@@H](NC(=O)[C@H](CCCNC(=N)N)NC(C)=O)CSSC[C@@H](C(N)=O)NC(=O)[C@@H]2CCCN2C(=O)[C@H](CCCNC(=N)N)NC(=O)[C@H](Cc2ccc(O)cc2)NC(=O)[C@H](C(C)C)NC(=O)[C@H](CCCNC(=N)N)NC(=O)[C@H](CCC(=O)O)NC(=O)[C@H](CC(C)C)NC1=O [SEQ. ID. NO. 28] | 22 | – | – | 21 | – | – | – | – | – | practically inactive | practically inactive | > 10000 |
